Measurements published in patent publication US20080108706A1, “Chemical resection of pancreas” (priority 1999, published 2008).
“Also recorded” adds a separate entry of the source.

How the values were obtained:
[1] = tested on: acinar-derived cell line AR42J; assay: Growth of AR42J cells, IC50 assays; assay type: cell-based
Experimental: (OH)2 DEHSPM was also tested in the acinar-derived cell line AR42J.

[2] = tested on: exocrine pancreas; assay: Beagle study Part B: comparison of (R,R)- v. (S,S)-(HO)2DEHSPM; assay type: in vivo, beagles
Text: As the pancreatic insufficiency side-effect that was observed after the administration of the (R,R)—(HO)2DEHSPM to the beagles may have been related to the (R,R)-chirality of the molecule, the (S,S)-enantiomer was synthesized and was compared in a head-to-head fashion with the (R,R)-enantiomer. To perform this experiment, five male beagles approximately 6-8 months of age were obtained from Harlan Sprague Dawley. There were provided with food and water ad libitum and were allowed to acclimate to their new surroundings for two weeks. The animals were weighed prior to starting drug administration and were weighed once per week during the drug dosing period. A CBC and chemistry panel and a Holter monitor were performed once per week. In addition to the usual tests, additional pancreatic function-specific tests were also performed. These additional evaluations included a fecal trypsin test, examination of the feces for fecal fat and serum trypsin-like immunoreactivity determinations. It was hoped that these signs of pancreatic insufficiency would only appear in the animals given the (R,R)-enantiomer and would not be observed in the dogs that were given the (S,S)-molecule. The pancreatic insufficiency may not become evident until approximately 7-8 weeks post-drug. At the conclusion of the experiment, all of the animals were sacrificed and the histology and tissue polyamine levels were determined.
Five male beagles approximately 6-8 months of age were obtained from Harlan Sprague Dawley. They were provided with food and water ad libitum and were allowed to acclimate to their new surroundings for two weeks. Once two sets of baseline data were obtained, the animals were randomly divided into three groups: two of the dogs (#468 and 500) received the (R,R)—(HO)2DEHSPM; two of the animals (#440 and 476) were given (S,S)—(HO)2DEHSPM; and one dog (#452) served as an untreated (saline only) control. The dogs were given the (R,R)—or (S,S)—(HO)2DEHSPM at a dose of 4.3 mg/kg/day subcutaneously in divided doses, 2.15 mg/kg BID.
The animals were weighed weekly during the acclimation period, the drug dosing period and throughout the post-drug observational period. A CBC, chemistry panel and pancreatic function tests (trypsin-like immunoreactivity, fecal trypsin, fecal fat, etc.) were performed once per week. Additional tests, e.g., glucose tolerance and fat absorption, were performed as necessary. The dogs were Holter monitored twice during the acclimation period and then weekly during drug dosing.

[3] = tested on: Pancreatic Ductal Adenocarcinoma #03; assay: Evaluation against early stage pancreatic ductal adenocarcinoma #03 in BDF mice; assay type: in vivo
Text: Male BDF mice (12 weeks old, weight approximately 28.9 g) were implanted with the pancreatic ductal cell carcinoma #03 3 days before beginning treatment with (HO)2DEHSPM.

[4] = tested on: native polyamine levels in AR42J cells; assay: Polyamine pool analysis in AR42J cells; assay type: cell-based; settings: 5 μm analogue
Experimental: In addition, the effect of (OH)2DEHSPM on the native polyamine levels in this cell line was evaluated.

[5] = Non-tumor-bearing toxicity controls, same regimens; assay type: in vivo; settings: group 3, NTB; IV QD 3, 4, 6-9, 14, 17, 18; total dosage 240 mg/kg
[6] = tested on: human pancreatic cell carcinoma line PANC-1; assay: IC50 assays in PANC-1 cells; assay type: cell-based
Experimental: (OH)2DEHSPM was tested in a series of IC50 assays in the human pancreatic cell carcinoma line PANC-1 (doubling time 36 hr.).

[7] = 4.3 mg/kg/day sc for 13 days, post-drug
[8] = approximately five weeks post-drug, 4.3 mg/kg/day sc for 13 days
[9] = dog #468, 4.3 mg/kg/day sc for 13 days
[10] = dog #500, 4.3 mg/kg/day sc for 13 days
[11] = group 2, total dosage 240 mg/kg IV
[12] = group 4, total dosage 205 mg/kg IV
[13] = group 6, total dosage 102.5 mg/kg IV

**Q.** For CCNCC[C@@H](O)CNCCCCNC[C@H](O)CCNCC.Cl.Cl.Cl.Cl [(R,R)-(HO)2DEHSPM, N^1,N^14-Diethyl-3(R) 12(R)-dihydroxyhomospermine tetrahydrochloride], which IC50 ([1]; treatment period 4 days (= 1.33 doublings)) is on record?
**A.** 90000 nM

**Q.** What about the IC50 ([1]; treatment period 6 days (= 2 doublings)) of the same molecule?
**A.** 1200 nM

**Q.** What about the IC50 ([1]; treatment period 12 days (= 4 doublings)) of the same molecule?
**A.** 90 nM

**Q.** And the “histopathology of pancreas at necropsy” value ([2]; 4.3 mg/kg/day sc for 13 days, 52- to 64-days post-drug)?
**A.** moderate to severe atrophy of the exocrine pancreases

**Q.** What about the alopecia [2, 7] of the same molecule?
**A.** also noted

**Q.** What about the “diagnosis from pancreatic function tests” value [2, 7] of the same molecule?
**A.** confirmed a diagnosis of exocrine pancreatic insufficiency

**Q.** And the “glucose tolerance test (endocrine pancreas)” value [2, 7]?
**A.** “normal” response

**Q.** And the “post-feeding serum samples after a fatty meal” value [2, 7]?
**A.** clear, indicating an inability to digest fats

**Q.** What about the clinical course ([2]; 4.3 mg/kg/day sc for 13 days, until euthanasia 52- to 64-days post-drug) of the same molecule?
**A.** continued to deteriorate

**Q.** And the “histology of pancreatic tissue samples” value ([2]; 10-days post-drug)?
**A.** no histological abnormalities

**Q.** What about the TLI [2, 8] of the same molecule?
**A.** began to decrease

**Q.** And the “fecal trypsin test results” value [2, 8]?
**A.** abnormal

**Q.** And the body weight ([2]; approximately five weeks post-drug, 4.3 mg/kg/day sc for 13 days, both dogs of group)?
**A.** began losing weight very rapidly

**Q.** And the “frank and/or occult blood in stool, found until” value [2, 9]?
**A.** about 17 days post-drug

**Q.** And the “loss of body weight at end of drug dosing period” value [2, 9]?
**A.** 1.4 kg

**Q.** What about the clinical signs ([2]; dog #468, day thirteen of drug administration, 4.3 mg/kg/day sc, 4.3 mg/kg/day) of the same molecule?
**A.** bloody diarrhea and anorexia; also recorded: developed bloody diarrhea and stopped eating

**Q.** What about the “blood glucose level in glucose tolerance test” value ([2]; dog #468, returned to normal during the 3.5 hours) of the same molecule?
**A.** exceeded 160 mg/dl

**Q.** And the clinical signs [2, 10]?
**A.** developed bloody diarrhea one-day post-drug

**Q.** And the “gain of body weight at end of drug dosing period” value [2, 10]?
**A.** 0.4 kg

**Q.** And the “pancreas at necropsy, gross appearance” value ([2]; dogs #468 and 500, 52- and 58-days post-drug)?
**A.** greatly atrophied (about one-fourth the control weight)

**Q.** What about the “Percent Body Wt. Loss” value ([3]; group 2, tumor-bearing, IV QD 3, 4, 6-9, 14, 17, 18, total dosage 240 mg/kg) of the same molecule?
**A.** 38%

**Q.** And the “Drug Deaths (days of death)” value ([3]; group 2, tumor-bearing, total dosage 240 mg/kg IV)?
**A.** none of the mice died

**Q.** And the Comments [3, 11]?
**A.** Inactive

**Q.** What about the “Median Tumor Burden (mg) on day 18 (range)” value (“Median Tumor Burden (mg)” for short) [3, 11] of the same molecule?
**A.** 651 (138-1324) mg

**Q.** What about the “Tumor Free on Day” value [3, 11] of the same molecule?
**A.** 0/5

**Q.** What about the T/C % ([3]; group 2, total dosage 240 mg/kg IV, tumor burden vs control) of the same molecule?
**A.** 64%

**Q.** What about the “Percent Body Wt. Loss” value ([3]; group 4, tumor-bearing, IV QD 3-18, total dosage 205 mg/kg) of the same molecule?
**A.** somewhat less dramatic

**Q.** What about the “Median Tumor Burden (mg)” value [3, 12] of the same molecule?
**A.** 172 (63-965) mg

**Q.** And the “T-C” value [3, 12]?
**A.** 9 days

**Q.** What about the “Time to 1000 mg days (range)” value [3, 12] of the same molecule?
**A.** 26.8 (18-28) days

**Q.** What about the “Tumor Free on Day” value [3, 12] of the same molecule?
**A.** 0/5

**Q.** What about the “Log Kill” value ([3]; group 4, total dosage 205 mg/kg IV, Td = 3.5 days) of the same molecule?
**A.** 0.8

**Q.** And the “Percent Body Wt. Loss” value ([3]; group 6, tumor-bearing, IV QD 3-18, total dosage 102.5 mg/kg)?
**A.** no significant weight loss

**Q.** And the Comments [3, 13]?
**A.** Inactive

**Q.** What about the “Median Tumor Burden (mg)” value [3, 13] of the same molecule?
**A.** 617 (270-748) mg

**Q.** And the “Tumor Free on Day” value [3, 13]?
**A.** 0/5

**Q.** What about the Analogue level [4] of the same molecule?
**A.** 4748 pmol/million cells

**Q.** And the “PUT, native polyamine level as % polyamine pools relative to untreated controls” value [4]?
**A.** 0%

**Q.** What about the “SPD, native polyamine level as % polyamine pools relative to untreated controls” value [4] of the same molecule?
**A.** 21%

**Q.** And the “SPM, native polyamine level as % polyamine pools relative to untreated controls” value [4]?
**A.** 82%

**Q.** What about the “Percent Body Wt. Loss” value [5] of the same molecule?
**A.** 30%

**Q.** And the IC50 ([6]; time point 96 hr.)?
**A.** > 100000 nM

**Q.** And the IC50 ([6]; time point 144 hr.)?
**A.** 500 nM

**Q.** What about the IC50 ([6]; time point 240 hr.) of the same molecule?
**A.** 120 nM
